# Data: patent publication US20230304010A1, “COMPOSITIONS AND METHODS FOR TREATING VIRAL INFECTIONS” (priority 2020, published 2023)
# Where two headings read alike, the source gives them in different places. Ends that are not written are not given here.
# What was measured:
# in vitro = details: uninfected Vero E6 cells
# [1] = molecular target: ACE2:SARS-CoV-2 Spike interaction (UniProt P0DTC2+Q9BYF1); assay: biochemical; assay type: binding
# [2] = molecular target: SARS-CoV-2 Spike: ACE2 interaction (UniProt P0DTC2+Q9BYF1); assay: biochemical; assay type: binding
# [3] = Nanoparticle formation of peptides with ADGN-106: mean size and polydispersity (Zetasizer); assay type: physicochemical; details: 25° C.; for Mean Size (nm): peptide/ADGN-106 complexes; for PI: polydispersity index of peptide/ADGN-106 complexes
# From the text: We then tested the ability of the different peptides to form nanoparticle organization in the presence of ADGN-106 or ADGN-100 peptide. […] Peptides were complexed with 5 or 10 molar excess of ADGN-106.
# [4] = tested on: SARS-CoV-2 Nucleocapsid gene; assay type: cell-based
# Vero E6 cells = details: uninfected Vero E6 cells, 0.5 µM
# Chain of SARS-CoV-2 Spike: ACE2 interaction (Q9BYF1 18-740, one chain of several): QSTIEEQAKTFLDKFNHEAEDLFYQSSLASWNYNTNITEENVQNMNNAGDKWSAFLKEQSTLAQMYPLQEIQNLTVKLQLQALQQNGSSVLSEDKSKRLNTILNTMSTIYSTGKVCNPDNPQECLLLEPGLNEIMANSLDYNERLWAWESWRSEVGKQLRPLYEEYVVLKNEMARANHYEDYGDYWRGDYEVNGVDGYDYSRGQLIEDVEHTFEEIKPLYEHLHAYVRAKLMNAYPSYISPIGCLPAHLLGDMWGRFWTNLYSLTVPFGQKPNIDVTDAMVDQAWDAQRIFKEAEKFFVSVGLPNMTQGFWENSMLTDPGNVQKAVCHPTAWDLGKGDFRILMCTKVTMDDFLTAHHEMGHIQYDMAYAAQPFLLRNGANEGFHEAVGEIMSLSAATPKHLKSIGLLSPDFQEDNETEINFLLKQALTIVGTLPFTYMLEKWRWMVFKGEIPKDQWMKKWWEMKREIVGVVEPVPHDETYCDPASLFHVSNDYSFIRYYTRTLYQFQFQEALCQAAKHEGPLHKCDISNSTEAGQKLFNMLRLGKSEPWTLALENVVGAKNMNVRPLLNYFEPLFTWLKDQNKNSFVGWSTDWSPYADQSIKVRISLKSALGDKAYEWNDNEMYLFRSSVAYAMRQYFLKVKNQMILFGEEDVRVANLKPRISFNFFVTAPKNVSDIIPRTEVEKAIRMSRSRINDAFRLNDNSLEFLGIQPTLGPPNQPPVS
# Chain of ACE2:SARS-CoV-2 Spike interaction (Q9BYF1 18-740, one chain of several): as above
compound,measurement,setting,value
"CC(C)C[C@H](NC(=O)[C@H](C)NC(=O)[C@H](CCCNC(=N)N)NC(=O)[C@H](Cc1c[nH]c2ccccc12)NC(=O)[C@@H](N)CC(C)C)C(=O)N[C@@H](Cc1c[nH]c2ccccc12)C(=O)N[C@@H](CCCNC(=N)N)C(=O)N[C@@H](CC(C)C)C(=O)N[C@@H](Cc1c[nH]c2ccccc12)C(=O)N[C@@H](CCCNC(=N)N)C(=O)N[C@@H](CO)C(=O)N[C@@H](CC(C)C)C(=O)N[C@@H](Cc1c[nH]c2ccccc12)C(=O)N[C@@H](CCCNC(=N)N)C(=O)N[C@@H](CC(C)C)C(=O)N[C@@H](CC(C)C)C(=O)N[C@@H](Cc1c[nH]c2ccccc12)C(=O)N[C@@H](CCCCN)C(=O)O [ADGN-106, reference compound]",CC50,in vitro,356000 ± 64000 nM
same,viability at 0.5 µM,in vitro,84%
CC(=O)N[C@@H](Cc1ccc(O)cc1)C(=O)N[C@@H](Cc1ccccc1)C(=O)N1CCC[C@H]1C(=O)N[C@@H](CC(C)C)C(=O)N[C@@H](CCC(N)=O)C(=O)N[C@@H](CO)C(=O)N[C@@H](Cc1ccc(O)cc1)C(=O)NCC(=O)N[C@@H](Cc1ccccc1)C(=O)N[C@@H](CCC(N)=O)C(=O)N1CCC[C@H]1C(=O)N[C@H](C(=O)N[C@@H](CC(N)=O)C(=O)NCC(=O)N[C@H](C(=O)NCC(=O)N[C@@H](Cc1ccc(O)cc1)C(=O)N[C@@H](CCC(N)=O)C(=O)NCCCCC(=O)N[C@@H](CC(C)C)C(=O)N[C@@H](Cc1c[nH]c2ccccc12)C(=O)N[C@@H](CCCNC(=N)N)C(=O)N[C@@H](C)C(=O)N[C@@H](CC(C)C)C(=O)N[C@@H](Cc1c[nH]c2ccccc12)C(=O)N[C@@H](CCCNC(=N)N)C(=O)N[C@@H](CC(C)C)C(=O)N[C@@H](Cc1c[nH]c2ccccc12)C(=O)N[C@@H](CCCNC(=N)N)C(=O)N[C@@H](CO)C(=O)N[C@@H](CC(C)C)C(=O)N[C@@H](Cc1c[nH]c2ccccc12)C(=O)N[C@@H](CCCNC(=N)N)C(=O)N[C@@H](CC(C)C)C(=O)N[C@@H](CC(C)C)C(=O)N[C@@H](Cc1c[nH]c2ccccc12)C(=O)N[C@@H](CCCCN)C(N)=O)C(C)C)[C@@H](C)O [Seq19],blocked ACE2:SARS-CoV-2 Spike interaction,[1],blocked
same,IC50,[1]; ACE2:SARS-CoV-2 Spike IC50,349 ± 26 nM
same,blocked SARS-CoV-2 Spike: ACE2 interaction,[2],blocked
same,IC50,[2]; SARS-CoV-2 Spike:ACE2 IC50,90.6 nM
same,Mean Size (nm),[3],37.2 ± 5 nm
same,PI,[3],0.24
same,Residual Infection (%),SARS-CoV-2,90%
same,viability at 0.5 µM,in vitro,87%
CC(=O)N[C@@H](CCCCN)C(=O)N[C@H](C(=O)N[C@@H](Cc1ccccc1)C(=O)N[C@@H](CC(C)C)C(=O)N[C@@H](CC(=O)O)C(=O)N[C@@H](CCCCN)C(=O)N[C@@H](Cc1ccccc1)C(=O)N[C@@H](CC(N)=O)C(=O)N[C@@H](Cc1c[nH]cn1)C(=O)N[C@@H](CCC(=O)O)C(=O)N[C@@H](C)C(=O)N[C@@H](CCC(=O)O)C(=O)N[C@@H](CC(=O)O)C(=O)N[C@@H](CC(C)C)C(=O)N[C@@H](Cc1ccccc1)C(=O)NCCCCCC(=O)N[C@@H](CC(C)C)C(=O)N[C@@H](Cc1c[nH]c2ccccc12)C(=O)N[C@@H](CCCNC(=N)N)C(=O)N[C@@H](C)C(=O)N[C@@H](CC(C)C)C(=O)N[C@@H](Cc1c[nH]c2ccccc12)C(=O)N[C@@H](CCCNC(=N)N)C(=O)N[C@@H](CC(C)C)C(=O)N[C@@H](Cc1c[nH]c2ccccc12)C(=O)N[C@@H](CCCNC(=N)N)C(=O)N[C@@H](CO)C(=O)N[C@@H](CC(C)C)C(=O)N[C@@H](Cc1c[nH]c2ccccc12)C(=O)N[C@@H](CCCNC(=N)N)C(=O)N[C@@H](CC(C)C)C(=O)N[C@@H](CC(C)C)C(=O)N[C@@H](Cc1c[nH]c2ccccc12)C(=O)N[C@@H](CCCCN)C(N)=O)[C@@H](C)O [Seq34],IC50,[1]; ACE2:SARS-CoV-2 Spike IC50,> 1000 nM
same,IC50,[2]; SARS-CoV-2 Spike:ACE2 IC50,> 1000 nM
same,Residual Infection (%),SARS-CoV-2,100%
same,viability at 0.5 µM,in vitro,98%
CSCC[C@H](NC(=O)[C@H](CC(N)=O)NC(C)=O)C(=O)N[C@H](C(=O)N[C@@H](CCC(N)=O)C(=O)NCC(=O)N[C@@H](Cc1ccccc1)C(=O)N[C@@H](Cc1c[nH]c2ccccc12)C(=O)N[C@@H](CCC(=O)O)C(=O)N[C@@H](CC(N)=O)C(=O)N1CCC[C@H]1C(=O)NCC(=O)NCC(=O)N1CCC[C@H]1C(=O)N[C@H](C(=O)N[C@@H](C)C(=O)N[C@@H](Cc1c[nH]c2ccccc12)C(=O)N[C@@H](CC(=O)O)C(=O)N[C@@H](CC(C)C)C(=O)NCC(=O)N[C@@H](CCCCN)C(=O)NCCCCCC(=O)N[C@@H](CC(C)C)C(=O)N[C@@H](Cc1c[nH]c2ccccc12)C(=O)N[C@@H](CCCNC(=N)N)C(=O)N[C@@H](C)C(=O)N[C@@H](CC(C)C)C(=O)N[C@@H](Cc1c[nH]c2ccccc12)C(=O)N[C@@H](CCCNC(=N)N)C(=O)N[C@@H](CC(C)C)C(=O)N[C@@H](Cc1c[nH]c2ccccc12)C(=O)N[C@@H](CCCNC(=N)N)C(=O)N[C@@H](CO)C(=O)N[C@@H](CC(C)C)C(=O)N[C@@H](Cc1c[nH]c2ccccc12)C(=O)N[C@@H](CCCNC(=N)N)C(=O)N[C@@H](CC(C)C)C(=O)N[C@@H](CC(C)C)C(=O)N[C@@H](Cc1c[nH]c2ccccc12)C(=O)N[C@@H](CCCCN)C(N)=O)[C@@H](C)O)[C@@H](C)O [Seq38],IC50,[1]; ACE2:SARS-CoV-2 Spike IC50,103 ± 17 nM
same,IC50,[2]; SARS-CoV-2 Spike:ACE2 IC50,214 nM
same,Mean Size (nm),[3],39 ± 10 nm
same,PI,[3],0.25
same,Residual Infection (%),SARS-CoV-2,80%
same,viability at 0.5 µM,in vitro,68%
CSCC[C@H](NC(=O)[C@H](CCC(N)=O)NC(=O)[C@H](C)NC(=O)[C@H](CC(C)C)NC(=O)[C@@H](NC(=O)[C@H](CO)NC(=O)[C@H](CCC(N)=O)NC(=O)[C@H](CCC(=O)O)NC(=O)[C@H](CCCCN)NC(=O)[C@H](CC(C)C)NC(=O)[C@H](Cc1ccccc1)NC(=O)[C@H](C)NC(=O)[C@H](CO)NC(=O)[C@H](Cc1c[nH]c2ccccc12)NC(=O)[C@H](CCCCN)NC(=O)[C@@H]1CCCN1C(=O)[C@H](Cc1ccccc1)NC(=O)[C@H](CC(C)C)NC(=O)[C@H](CC(=O)O)NC(=O)[C@H](CCC(=O)O)NC(=O)[C@H](C)NC(=O)[C@H](CCC(=O)O)NC(=O)[C@H](Cc1c[nH]cn1)NC(=O)[C@H](CC(N)=O)NC(=O)[C@H](Cc1ccccc1)NC(=O)[C@H](CCCCN)NC(=O)[C@H](CC(=O)O)NC(=O)[C@H](CC(C)C)NC(=O)[C@H](Cc1ccccc1)NC(=O)[C@@H](NC(=O)[C@H](CCCCN)NC(C)=O)[C@@H](C)O)[C@@H](C)O)C(=O)N[C@@H](Cc1ccc(O)cc1)C(=O)NCC(=O)NCCCCCC(=O)N[C@@H](CC(C)C)C(=O)N[C@@H](Cc1c[nH]c2ccccc12)C(=O)N[C@@H](CCCNC(=N)N)C(=O)N[C@@H](C)C(=O)N[C@@H](CC(C)C)C(=O)N[C@@H](Cc1c[nH]c2ccccc12)C(=O)N[C@@H](CCCNC(=N)N)C(=O)N[C@@H](CC(C)C)C(=O)N[C@@H](Cc1c[nH]c2ccccc12)C(=O)N[C@@H](CCCNC(=N)N)C(=O)N[C@@H](CO)C(=O)N[C@@H](CC(C)C)C(=O)N[C@@H](Cc1c[nH]c2ccccc12)C(=O)N[C@@H](CCCNC(=N)N)C(=O)N[C@@H](CC(C)C)C(=O)N[C@@H](CC(C)C)C(=O)N[C@@H](Cc1c[nH]c2ccccc12)C(=O)N[C@@H](CCCCN)C(N)=O [Seq40],increase of potency/efficiency by covalent coupling to ADGN peptide,[1],1.4 folds
same,IC50,[1]; ACE2:SARS-CoV-2 Spike IC50,85.4 ± 12 nM
same,IC50,[2]; SARS-CoV-2 Spike:ACE2 IC50,45.1 nM
same,Mean Size (nm),[3],54.5 ± 14 nm
same,PI,[3],0.31
AAGCATATTGACGCATACAAA (chemistry not given here) [DIVC-9],IC50,[4],394 nM
Ac-EQAKTFLDKFNHEAEDLFPKWSAFLKEQSTLAQMYG [Seq27],folds more potent than SBP-1-ADGN-106/ADGN-106 complex,[1],6 folds
same,folds more potent than SBP-1 coupled to ADGN-106,[1],6 folds
same,folds more potent than SBP-1 peptide/ADGN-106 complex,[1],40 folds
same,folds more potent than free SBP-1,[1],15 folds
same,folds more potent than SBP-1-ADGN-106/ADGN-106 complex,[2],4 folds
same,folds more potent than SBP-1 coupled to ADGN-106,[2],3.5 folds
same,folds more potent than SBP-1 peptide/ADGN-106 complex,[2],35 folds
same,folds more potent than free SBP-1,[2],7 folds
same,Mean Size (nm),[3],62.1 ± 10 nm
same,PI,[3],0.21
Ac-G*FQPTNGVK*-Ava-LWRALWRLWRSLWRLLWK-NH2 [Seq21],Mean Size (nm),[3],78.2 ± 7 nm
same,PI,[3],0.3
same,Residual Infection (%),SARS-CoV-2,79%
same,Cell Viability (%),Vero E6 cells,78%
Ac-KTFLDKFNHEAEDLFPGPKWSAFLKEQSTLAQMYG [Seq28],folds more potent than SBP-1-ADGN-106/ADGN-106 complex,[1],6 folds
same,folds more potent than SBP-1 coupled to ADGN-106,[1],6 folds
same,folds more potent than SBP-1 peptide/ADGN-106 complex,[1],40 folds
same,folds more potent than free SBP-1,[1],15 folds
same,folds more potent than SBP-1-ADGN-106/ADGN-106 complex,[2],4 folds
same,folds more potent than SBP-1 coupled to ADGN-106,[2],3.5 folds
same,folds more potent than SBP-1 peptide/ADGN-106 complex,[2],35 folds
same,folds more potent than free SBP-1,[2],7 folds
same,Mean Size (nm),[3],34.6 ± 7 nm
same,PI,[3],0.18
same,Residual Infection (%),SARS-CoV-2,10%
same,fold stronger anti-SARS-CoV-2 activity than hydroxychloroquine sulfate,SARS-CoV-2,250 fold
same,increase of potency by pre-incubation with SARS CoV-2 prior infection,SARS-CoV-2,2 factor
same,inhibition of viral infection,SARS-CoV-2,exhibit inhibition of viral infection
same,CC50,in vitro,290000 ± 51000 nM
same,viability at 0.5 µM,in vitro,78%
Ac-S*YGFQPTNGV*-Ava-LWRALWRLWRSLWRLLWK-NH2 [Seq20],Mean Size (nm),[3],68.1 ± 5 nm
same,PI,[3],0.25
same,Residual Infection (%),SARS-CoV-2,65%
same,inhibition of viral infection,SARS-CoV-2,exhibit inhibition of viral infection
same,Cell Viability (%),Vero E6 cells,91%
Ac-T*EYQAGSTK*Ava-LWRALWRLWRSLWRLLWK-NH2 [Seq16],IC50,[1]; read-out: ACE2:SARS-CoV-2 Spike IC50,> 10000 nM
same,IC50,[2]; read-out: SARS-CoV-2 Spike:ACE2 IC50,> 1000 nM
same,Mean Size (nm),[3],44.2 ± 7 nm
same,PI,[3],0.28
GACCAGGAACTAATCAGACAA (chemistry not given here) [DIVC-2],IC50,[4],> 500 nM
GACTTCCCTATGGTGCTAACA (chemistry not given here) [DIVC-4],IC50,[4],254 nM
GCAACAATCCATGAGCAGTGC (chemistry not given here) [DIVC-10],IC50,[4],28.4 nM
GCAACTGAGGGAGCCTTGAAT (chemistry not given here) [DIVC-1],IC50,[4],> 500 nM
GCAGACGTGGTCCAGAACAAA (chemistry not given here) [DIVC-7],IC50,[4],147 nM
GGCTGATGAAACTCAAGCCTT (chemistry not given here) [DIVC-5],IC50,[4],> 500 nM
